Here are results for four compounds from ChEMBL document CHEMBL5518236, “Discovery of Clinical Candidate AZD5462, a Selective Oral Allosteric RXFP1 Agonist for Treatment of Heart Failure” (J Med Chem, 2024).

Activity calls are given as the source filed them. No cut-off for these calls is given here.

The EC50 is the concentration that produces a half-maximal response. Low values mean greater potency, high ones weaker potency. In general, logD refers to lipophilicity at a set pH, counting ionised and neutral species. Read a low logD as lower lipophilicity. One may read the Papp A→B as how fast a substance crosses the layer from the apical side.

The target in the first data set is T1, Relaxin receptor 1 (Homo sapiens) (UniProt Q9HBX9).
T1 sequence (whole entry): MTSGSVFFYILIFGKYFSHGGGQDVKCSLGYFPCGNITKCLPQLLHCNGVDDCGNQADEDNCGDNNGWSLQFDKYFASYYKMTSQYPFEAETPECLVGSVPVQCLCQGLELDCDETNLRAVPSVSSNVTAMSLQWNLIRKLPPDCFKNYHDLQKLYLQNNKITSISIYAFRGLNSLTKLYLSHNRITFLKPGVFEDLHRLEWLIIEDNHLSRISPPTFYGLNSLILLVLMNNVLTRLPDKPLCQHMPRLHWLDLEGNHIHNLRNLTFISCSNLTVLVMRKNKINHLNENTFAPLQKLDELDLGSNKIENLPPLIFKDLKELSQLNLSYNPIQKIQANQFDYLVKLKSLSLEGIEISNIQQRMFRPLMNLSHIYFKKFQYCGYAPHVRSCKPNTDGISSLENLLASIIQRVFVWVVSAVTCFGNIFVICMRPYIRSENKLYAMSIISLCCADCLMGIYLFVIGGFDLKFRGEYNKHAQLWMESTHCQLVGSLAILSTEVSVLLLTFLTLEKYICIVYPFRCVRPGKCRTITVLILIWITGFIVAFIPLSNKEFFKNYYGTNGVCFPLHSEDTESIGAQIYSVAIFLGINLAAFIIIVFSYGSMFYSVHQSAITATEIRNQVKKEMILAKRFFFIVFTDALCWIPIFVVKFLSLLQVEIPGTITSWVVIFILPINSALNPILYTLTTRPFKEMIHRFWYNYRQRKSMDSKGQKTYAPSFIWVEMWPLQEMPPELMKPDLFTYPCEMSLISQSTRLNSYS
Conditions: CHO-K1, time 15.0 min.
As to `CC(C)Oc1ccccc1C(=O)Nc1ccccc1C(=O)Nc1cccc(S(=O)(=O)C(F)(F)F)c1`, the pEC50 result was “inactive”.

Test system in a further data set: not listed separately
The data set can be described thus: Metabolic stability in human liver microsomes assessed as intrinsic clearance at 1 uM measured upto 30 mins by LC-MS/MS analysis. Type of data set: ADME, Microsome. As to conditions: read-out: CLH. For orientation: Liver microsomes are a subcellular fraction often used to study metabolism.
For the compound `COc1cc(F)c(O[C@H]2CC[C@@](CO)(C(=O)O)CC2)cc1C(=O)N[C@@H]1[C@H]2CC[C@H](C2)[C@@H]1C(=O)NCC1(C)CCC1`, the microsomal CLint at 1 µM is less than 5.1 µL/min/mg.
Turning to `COc1cc(F)c(C[C@H]2CC[C@@](C)(C(=O)O)CC2)cc1C(=O)N[C@@H]1[C@H]2CC[C@H](C2)[C@@H]1C(=O)NCC1(C)CCC1`, the microsomal CLint at 1 µM is 78 µL/min/mg.
Still for that read-out and setting: for `CC1(CNC(=O)[C@H]2C3CCC(C3)[C@H]2NC(=O)c2cc(O[C@H]3CC[C@@](C)(C(=O)O)CC3)c(C#N)cc2F)CCC1` (stereo partly drawn) the value was 14 µL/min/mg.

Test system in another data set: not listed separately
The data set can be described thus: Protein binding in rat plasma assessed as fraction unbound at 5 uM measured after 18 hrs by LC-MS/MS analysis. Type of data set: ADME, cell-free. As to conditions: read-out: PPB.
Turning to `CC(C)Oc1ccccc1C(=O)Nc1ccccc1C(=O)Nc1cccc(S(=O)(=O)C(F)(F)F)c1`, the fraction unbound at 18 h, 5 µM is less than 0.0002.

A further data set addresses T2, Relaxin receptor 1 (Homo sapiens, UniProt Q9HBX9).
T2 sequence (Q9HBX9 whole entry): T1 sequence (whole entry)
Conditions: not given
With `COc1cc(F)c(C[C@H]2CC[C@@](C)(C(=O)O)CC2)cc1C(=O)N[C@@H]1[C@H]2CC[C@H](C2)[C@@H]1C(=O)NCC1(C)CCC1`, it took 158 nM to reach a half-maximal effect (EC50).
Still for that read-out and setting: for `CC1(CNC(=O)[C@H]2C3CCC(C3)[C@H]2NC(=O)c2cc(O[C@H]3CC[C@@](C)(C(=O)O)CC3)c(C#N)cc2F)CCC1` (stereo partly drawn) the value was 15.8 nM.

Test system in another data set: not listed separately
The data set can be described thus: Metabolic stability in human hepatocytes assessed as intrinsic clearance measured per 10^6 viable cells/ml at 1 uM measured upto 120 mins by LC-MS/MS analysis. Type of data set: ADME, cell-based, Hepatocyte. As to conditions: read-out: CLH.
On to `COc1cc(F)c(O[C@H]2CC[C@@](CO)(C(=O)O)CC2)cc1C(=O)N[C@@H]1[C@H]2CC[C@H](C2)[C@@H]1C(=O)NCC1(C)CCC1`, for which the hepatocyte CLint at 1 µM was 6.2 µL/min/1e6 cells.
Same read-out and setting: for `COc1cc(F)c(C[C@H]2CC[C@@](C)(C(=O)O)CC2)cc1C(=O)N[C@@H]1[C@H]2CC[C@H](C2)[C@@H]1C(=O)NCC1(C)CCC1` the value was 9.8 µL/min/1e6 cells; for `CC1(CNC(=O)[C@H]2C3CCC(C3)[C@H]2NC(=O)c2cc(O[C@H]3CC[C@@](C)(C(=O)O)CC3)c(C#N)cc2F)CCC1` (stereo partly drawn), 7.9 µL/min/1e6 cells.

Test system in another data set: not listed separately
The data set can be described thus: Protein binding in human plasma assessed as fraction unbound at 5 uM measured after 18 hrs by LC-MS/MS analysis. As to conditions: read-out: PPB. In kind it is ADME, cell-free.
As for `CC(C)Oc1ccccc1C(=O)Nc1ccccc1C(=O)Nc1cccc(S(=O)(=O)C(F)(F)F)c1`, the fraction unbound at 18 h, 5 µM was less than 0.0002.

Test system in the next data set: not listed separately
The data set is described as follows: Octanol/water partition coefficient, logD of the compound at pH 7.4 by shake flask method. In kind it is physicochemical.
Conditions: not given
For the compound `COc1cc(F)c(O[C@H]2CC[C@@](CO)(C(=O)O)CC2)cc1C(=O)N[C@@H]1[C@H]2CC[C@H](C2)[C@@H]1C(=O)NCC1(C)CCC1`, the logD came to 1.5.
Take `COc1cc(F)c(C[C@H]2CC[C@@](C)(C(=O)O)CC2)cc1C(=O)N[C@@H]1[C@H]2CC[C@H](C2)[C@@H]1C(=O)NCC1(C)CCC1`: the logD was 4.3.
Still for that read-out and setting: next, `CC1(CNC(=O)[C@H]2C3CCC(C3)[C@H]2NC(=O)c2cc(O[C@H]3CC[C@@](C)(C(=O)O)CC3)c(C#N)cc2F)CCC1` (stereo partly drawn): 3.3; `CC(C)Oc1ccccc1C(=O)Nc1ccccc1C(=O)Nc1cccc(S(=O)(=O)C(F)(F)F)c1`: greater than 4.

Test system in another data set: not listed separately
The data set can be described thus: Metabolic stability in human liver microsomes assessed as unbound intrinsic clearance at 1 uM measured upto 30 mins by LC-MS/MS analysis. Conditions: 0.5 h. Type of data set: ADME, Microsome.
As for `COc1cc(F)c(O[C@H]2CC[C@@](CO)(C(=O)O)CC2)cc1C(=O)N[C@@H]1[C@H]2CC[C@H](C2)[C@@H]1C(=O)NCC1(C)CCC1`, the CL free was less than 6.2 µL/min/mg.
On the same count and under the same terms, for `COc1cc(F)c(C[C@H]2CC[C@@](C)(C(=O)O)CC2)cc1C(=O)N[C@@H]1[C@H]2CC[C@H](C2)[C@@H]1C(=O)NCC1(C)CCC1` the value was 269 µL/min/mg; for `CC1(CNC(=O)[C@H]2C3CCC(C3)[C@H]2NC(=O)c2cc(O[C@H]3CC[C@@](C)(C(=O)O)CC3)c(C#N)cc2F)CCC1` (stereo partly drawn), 27 µL/min/mg.

Test system in the next data set: not listed separately
The data set is described as follows: Apparent permeability across apical to basolateral side in human Caco-2 cells at pH 7.4 by LC-MS/MS analysis. In kind it is ADME, cell-based. Conditions: Caco-2, pH 7.4.
In the case of `COc1cc(F)c(O[C@H]2CC[C@@](CO)(C(=O)O)CC2)cc1C(=O)N[C@@H]1[C@H]2CC[C@H](C2)[C@@H]1C(=O)NCC1(C)CCC1`, the Papp A→B turned out to be 3.1 ×10⁻⁶ cm/s.

Test system in another data set: not listed separately
The data set is described as follows: Metabolic stability in human hepatocytes assessed as unbound intrinsic clearance measured per 10^6 viable cells/ml at 1 uM measured upto 120 mins by LC-MS/MS analysis. Type of data set: ADME, cell-based, Hepatocyte. Conditions: 2 h.
Turning to `COc1cc(F)c(O[C@H]2CC[C@@](CO)(C(=O)O)CC2)cc1C(=O)N[C@@H]1[C@H]2CC[C@H](C2)[C@@H]1C(=O)NCC1(C)CCC1`, the CL free turned out to be 11 µL/min.
Still for that read-out and setting: next, `COc1cc(F)c(C[C@H]2CC[C@@](C)(C(=O)O)CC2)cc1C(=O)N[C@@H]1[C@H]2CC[C@H](C2)[C@@H]1C(=O)NCC1(C)CCC1`: 43 µL/min.
The same measure, in the same setting: next, `CC1(CNC(=O)[C@H]2C3CCC(C3)[C@H]2NC(=O)c2cc(O[C@H]3CC[C@@](C)(C(=O)O)CC3)c(C#N)cc2F)CCC1` (stereo partly drawn): 16 µL/min.
As for `CC(C)Oc1ccccc1C(=O)Nc1ccccc1C(=O)Nc1cccc(S(=O)(=O)C(F)(F)F)c1`, the CL free is on record as 3.07 10^3uL/min.
